Assay results: ChEMBL document CHEMBL1828561, “Identification of a potent and selective free fatty acid receptor 1 (FFA1/GPR40) agonist with favorable physicochemical and in vitro ADME properties” (J Med Chem, 2011)

Tested on: 1321-N1
Experiment: Selectivity for human FFA1 receptor expressed in human 1321N1 cells over 5HT transporter
Format: cell-based

O=C(O)CCc1ccc(C#Cc2cc(Cl)nc(Cl)c2)cc1
Selectivity ratio: > 100
